Data: patent publication US20150056166A1, “FLAVONE DERIVATIVES AND THEIR USE” (Twincore GmbH, priority 2012, published 2015)
Where two headings read alike, the source gives them in different places.

Columns and labels:
Luc-Jc1 reporter viruses = test: Drug added before, during or after inoculation with Luc-Jc1 reporter virus (FIG. 2C); format: cell-based, HCV; conditions: luciferase 72 h
Experimental: (A) Huh7-Lunet/CD81 cells were transfected with the subgenomic luciferase replicon depicted at the top. Drugs were added 4 h post transfection and the level of HCV RNA translation and RNA replication was quantified by luciferase assays 72 h post transfection. Mean values of three independent experiments each with quadruplicate measurements including the standard deviation are shown. (B) Cells were transfected with the Jc1 chimera depicted above and drugs were added 4 h later. HCV virus release in the presence or absence of given compounds was determined by quantification of intracellular and extracellular core protein levels using a core-specific ELISA. […] Infectivity was determined 72 h later by luciferase assays and compared to DMSO-treated controls. […]
Huh7-Lunet/CD81 cells were infected with reporter virus particles essentially as described recently (Koutsoudakis et al., J. Virol. 2006; 80: 5308-5320). […] Cells were inoculated for 4 h at 37° C., viral inoculum was replaced by fresh culture fluid and infection was quantified 48 h or 72 h after virus inoculation using luciferase assays. […] Cells infected with the renilla reporter virus were lysed in 200 μl lysis buffer (Promega, Mannheim, Germany) and after addition of the luciferase substrate (1 μM of coelenterazin (P. J. K., Kleinblittersdorf, Germany) in PBS) measured for 1 s in a luminometer (Lumat LB9507, Berthold, Freiburg, Germany). […]

JcR-2a virus particles = test: Antiviral activity against early steps of HCV cell entry, synchronized JcR-2a infection (FIG. 3); format: cell-based; conditions: Hepatitis C virus
Experimental: FIG. 3: BJ486K inhibits cell entry post virus attachment. The design of the JcR-2a reporter virus construct is given at the top. Huh7-Lunet/CD81 cells were inoculated with concentrated JcR-2a particles at 4° C. for 60 minutes. Subsequently, unbound virus particles were washed away and cells were shifted to 37° C. to permit synchronized cell entry. According to the 8 experimental protocols depicted in the middle, various cell entry inhibitors including heparin (50 μg/ml), ITX5061 (10 μM), CD81-specific antibody JS-81 (2 μg/ml) and BJ486K (20 μM) were either present during inoculation (protocol 1) or were added at different time points after inoculation (protocols 2 to 8). In each case, inhibitor was present for 4 h (dashed line) and was then washed away. Efficiency of cell entry was determined 48 h post inoculation by determination of luciferase activity and is expressed relative to control infections conducted in the presence of solvent alone (DMSO). Mean values of three independent experiments each with quadruplicate measurements including the standard deviation are shown.
JcR-2a virus particles were incubated with Huh7-Lunet/CD81 cells seeded as described above for 1 h at 4° C. to synchronize cell entry. Various inhibitors including 50 μg/ml heparin (Sigma-Aldrich), CD81-specific antibody JS-81 (2 μg/ml; Becton Dickinson), ITX 5061 (10 μM) or BJ486K (20 μM), were added during virus inoculation (protocol 1) or at indicated time points after virus inoculation (protocol 2-8). After 4 h inhibitor treatment, medium was changed to fresh culture fluid without inhibitors and the cells were lysed 48 h after inoculation as described above. Efficiency of infection was determined by luciferase assay using a tube luminometer (Lumat LB9507, Berthold, Freiburg, Germany).
To resolve which step of HCV cell entry is inhibited by BJ486K, we assessed its antiviral activity when administered at different time points during the early phase of infection. To this end, Huh7-Lunet/CD81 cells were inoculated for one hour at 4° C. with a reporter virus prepared in the absence of drugs. […]

[1] = Bioavailability of BJ486K in mice, plasma levels by LC-MS/MS; format: in vivo
Experimental: FIG. 10: Oral bioavailability of BJ486K in mice. A single dose of 0.25 mg/kg of BJ486K was administered through oral (A) or intravenous route (B). Plasma levels of BJ486K were determined 5, 15, 30, 60, 120 and 180 minutes post administration. Mean values of two animals including the standard errors are given. (C)
Bioavailability of BJ486K. Mice (24 in total) were treated either orally or intraveniously with a single dose of 0.25 mg/kg of the inhibitor (solved in saline/10% cremophor EL). At different time points after inhibitor administration (5 min, 15 min, 30 min, 60 min, 120 min or 180 min) two mice from each group were sacrified and the blood was centrifuged to obtain the plasma, which was stored at −80° C. until further examination. 400 μl of each plasma sample was mixed with equal amount of a 2% trifluoroacetic acid and loaded on a SPE Strata C18 column (equilibrated with 1 ml methanol and 1 ml 1% trifluoroacetic acid) for solid phase extraction of the plasma. After several washing steps (1% trifluoroacetic acid and water), the samples were eluted with acetonitrile and dried. […] Samples were further analyzed with a LC-MS/MS (triple quadrupole mass spectrometer LCMS 8030 Shimadzu), which was calibrated at the day of measurement. […] Bioavailability was calculated by dividing the area under curve (AUC) for oral route by the AUC for intravenous route.

## COc1ccc(-c2cc(=O)c3c(O)c(O)c(OC)cc3o2)cc1 [BJ486K, 5,6-Dihydroxy-7-methoxy-2-(4-methoxy-phenyl)-chromen-4-one]
Luc-Jc1 reporter viruses
  interference with HCV infection by time of addition: only interfered with HCV infection when the drug was present during virus inoculation
JcR-2a virus particles; 20 min, read-out: inhibition of HCV infection
  inhibition at 20 µM: ~80%
JcR-2a virus particles; read-out: inhibition of entry
  inhibition at 20 µM: > 90%
[1]; mice
  bio-availability: rather low
[1]; mouse, plasma, in mice
  half-life: ~7 min
